Read-outs that look alike come from different tables or passages of the source.
Experiments:
[1] = target: SGK2 (Homo sapiens, UniProt Q9HBY8); settings: 1 µM; binder
[2] = target: NEK4 (Homo sapiens, UniProt P51957); settings: 1 µM; binder
[3] = target: ABL1(Y253F) (Homo sapiens, UniProt P00519, Y253F); settings: phosphorylated; 1 µM; binder
[4] = target: FLT3(ITD) (Homo sapiens, UniProt P36888); settings: 1 µM; binder
[5] = target: MEK1 (Homo sapiens, UniProt Q02750); settings: 1 µM; binder
[6] = target: CSNK2A2 (Homo sapiens, UniProt P19784); settings: 1 µM; binder
[7] = target: EPHB4 (Homo sapiens, UniProt P54760); settings: 1 µM; binder
[8] = target: SRMS (Homo sapiens, UniProt Q9H3Y6); settings: 1 µM; binder
[9] = target: MARK4 (Homo sapiens, UniProt Q96L34); settings: 1 µM; binder
[10] = target: BRSK2 (Homo sapiens, UniProt Q8IWQ3); settings: 1 µM; binder
[11] = target: PIK3CA(H1047L) (Homo sapiens, UniProt P42336, H1047L); settings: 1 µM; binder
[12] = target: EPHA1 (Homo sapiens, UniProt P21709); settings: 1 µM; binder
[13] = target: PIP5K1A (Homo sapiens, UniProt Q99755); settings: 1 µM; binder
[14] = target: PIK3CA(M1043I) (Homo sapiens, UniProt P42336, M1043I); settings: 1 µM; binder
[15] = target: DYRK2 (Homo sapiens, UniProt Q92630); settings: 1 µM; binder
[16] = target: FLT3(ITD,D835V) (Homo sapiens, UniProt P36888, D835V/ITD); settings: 1 µM; binder
[17] = target: MEK3 (Homo sapiens, UniProt P46734); settings: 1 µM; binder
[18] = target: FLT3(D835V) (Homo sapiens, UniProt P36888, D835V); settings: 1 µM; binder
[19] = target: AURKB (Homo sapiens, UniProt Q96GD4); settings: 1 µM; binder
[20] = target: FLT3(D835Y) (Homo sapiens, UniProt P36888, D835Y); settings: 1 µM; binder
[21] = target: KIT(A829P) (Homo sapiens, UniProt P10721, A829P); settings: 1 µM; binder
[22] = target: CSNK1E (Homo sapiens, UniProt P49674); settings: 1 µM; binder
[23] = target: SNARK (Homo sapiens, UniProt Q9H093); settings: 1 µM; binder
[24] = target: LATS2 (Homo sapiens, UniProt Q9NRM7); settings: 1 µM; binder
[25] = target: TRKA (Homo sapiens, UniProt P04629); settings: 1 µM; binder
[26] = target: INSRR (Homo sapiens, UniProt P14616); settings: 1 µM; binder
[27] = target: ABL1(F317L) (Homo sapiens, UniProt P00519, F317L); settings: 1 µM, binder
[28] = target: ABL1-nonphosphorylated (Homo sapiens, UniProt P00519); settings: 1 µM; binder
[29] = target: NEK9 (Homo sapiens, UniProt Q8TD19); settings: 1 µM; binder
Sequence of NEK9 (Q8TD19 whole entry): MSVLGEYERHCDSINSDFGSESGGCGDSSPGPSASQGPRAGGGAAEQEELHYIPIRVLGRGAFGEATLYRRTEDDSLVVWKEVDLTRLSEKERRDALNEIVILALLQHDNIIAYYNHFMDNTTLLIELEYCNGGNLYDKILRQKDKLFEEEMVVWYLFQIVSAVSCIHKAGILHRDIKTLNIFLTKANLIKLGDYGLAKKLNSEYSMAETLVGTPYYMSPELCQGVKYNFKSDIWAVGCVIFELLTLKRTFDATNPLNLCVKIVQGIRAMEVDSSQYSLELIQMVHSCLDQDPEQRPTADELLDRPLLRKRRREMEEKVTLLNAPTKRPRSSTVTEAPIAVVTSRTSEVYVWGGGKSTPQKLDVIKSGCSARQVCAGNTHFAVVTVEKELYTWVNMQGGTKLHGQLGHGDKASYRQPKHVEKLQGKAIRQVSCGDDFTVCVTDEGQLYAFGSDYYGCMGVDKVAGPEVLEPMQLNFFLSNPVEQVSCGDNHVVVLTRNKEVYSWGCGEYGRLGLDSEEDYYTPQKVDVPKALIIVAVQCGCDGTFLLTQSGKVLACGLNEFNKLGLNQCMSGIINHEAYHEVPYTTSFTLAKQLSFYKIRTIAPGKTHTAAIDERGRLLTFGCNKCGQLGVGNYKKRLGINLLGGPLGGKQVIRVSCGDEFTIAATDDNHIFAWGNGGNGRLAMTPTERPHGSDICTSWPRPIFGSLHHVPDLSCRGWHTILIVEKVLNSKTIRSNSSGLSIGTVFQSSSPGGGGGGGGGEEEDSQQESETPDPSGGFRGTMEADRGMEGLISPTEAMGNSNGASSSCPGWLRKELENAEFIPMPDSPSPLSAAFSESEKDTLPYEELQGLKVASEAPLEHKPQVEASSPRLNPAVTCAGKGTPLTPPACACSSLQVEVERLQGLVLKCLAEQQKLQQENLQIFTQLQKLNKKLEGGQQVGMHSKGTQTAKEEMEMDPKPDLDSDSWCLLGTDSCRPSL

Sequence of EPHB4 (P54760 whole entry): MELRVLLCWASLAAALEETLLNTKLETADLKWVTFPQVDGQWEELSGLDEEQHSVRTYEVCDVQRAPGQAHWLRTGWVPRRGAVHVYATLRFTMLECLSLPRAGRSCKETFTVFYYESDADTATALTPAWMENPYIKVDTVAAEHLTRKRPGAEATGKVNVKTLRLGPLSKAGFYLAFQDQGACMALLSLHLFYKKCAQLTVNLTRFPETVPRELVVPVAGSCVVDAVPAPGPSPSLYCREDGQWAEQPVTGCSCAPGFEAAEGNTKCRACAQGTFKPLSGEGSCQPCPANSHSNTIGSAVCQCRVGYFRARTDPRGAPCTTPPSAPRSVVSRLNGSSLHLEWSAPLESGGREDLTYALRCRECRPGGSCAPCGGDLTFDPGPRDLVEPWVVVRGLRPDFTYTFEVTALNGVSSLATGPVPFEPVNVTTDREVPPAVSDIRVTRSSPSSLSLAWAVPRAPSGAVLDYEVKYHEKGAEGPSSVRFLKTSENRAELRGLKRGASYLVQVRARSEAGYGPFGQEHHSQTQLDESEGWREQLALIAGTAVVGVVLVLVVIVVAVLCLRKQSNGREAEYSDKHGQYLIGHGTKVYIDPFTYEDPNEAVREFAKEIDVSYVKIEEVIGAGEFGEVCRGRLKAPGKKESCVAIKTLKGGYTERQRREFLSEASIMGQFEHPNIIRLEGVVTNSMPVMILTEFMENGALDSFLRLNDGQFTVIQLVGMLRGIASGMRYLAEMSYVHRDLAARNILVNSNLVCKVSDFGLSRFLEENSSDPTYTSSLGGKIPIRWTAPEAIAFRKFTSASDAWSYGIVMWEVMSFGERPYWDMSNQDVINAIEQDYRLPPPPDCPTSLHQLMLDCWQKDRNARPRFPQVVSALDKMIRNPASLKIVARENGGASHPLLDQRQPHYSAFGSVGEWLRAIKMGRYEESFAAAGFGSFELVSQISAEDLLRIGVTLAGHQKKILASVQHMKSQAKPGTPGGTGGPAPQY
Sequence of MEK3 (P46734 whole entry): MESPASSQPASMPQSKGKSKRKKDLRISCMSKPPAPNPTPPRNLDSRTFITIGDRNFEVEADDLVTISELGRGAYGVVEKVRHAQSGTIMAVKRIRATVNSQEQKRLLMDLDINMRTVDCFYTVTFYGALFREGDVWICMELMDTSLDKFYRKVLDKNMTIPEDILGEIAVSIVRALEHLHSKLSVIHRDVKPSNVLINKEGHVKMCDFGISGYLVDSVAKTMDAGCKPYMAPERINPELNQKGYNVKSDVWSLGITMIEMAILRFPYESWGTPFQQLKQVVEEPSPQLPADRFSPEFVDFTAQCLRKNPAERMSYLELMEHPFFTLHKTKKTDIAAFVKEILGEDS
Sequence of KIT(A829P) (P10721 whole entry A829P): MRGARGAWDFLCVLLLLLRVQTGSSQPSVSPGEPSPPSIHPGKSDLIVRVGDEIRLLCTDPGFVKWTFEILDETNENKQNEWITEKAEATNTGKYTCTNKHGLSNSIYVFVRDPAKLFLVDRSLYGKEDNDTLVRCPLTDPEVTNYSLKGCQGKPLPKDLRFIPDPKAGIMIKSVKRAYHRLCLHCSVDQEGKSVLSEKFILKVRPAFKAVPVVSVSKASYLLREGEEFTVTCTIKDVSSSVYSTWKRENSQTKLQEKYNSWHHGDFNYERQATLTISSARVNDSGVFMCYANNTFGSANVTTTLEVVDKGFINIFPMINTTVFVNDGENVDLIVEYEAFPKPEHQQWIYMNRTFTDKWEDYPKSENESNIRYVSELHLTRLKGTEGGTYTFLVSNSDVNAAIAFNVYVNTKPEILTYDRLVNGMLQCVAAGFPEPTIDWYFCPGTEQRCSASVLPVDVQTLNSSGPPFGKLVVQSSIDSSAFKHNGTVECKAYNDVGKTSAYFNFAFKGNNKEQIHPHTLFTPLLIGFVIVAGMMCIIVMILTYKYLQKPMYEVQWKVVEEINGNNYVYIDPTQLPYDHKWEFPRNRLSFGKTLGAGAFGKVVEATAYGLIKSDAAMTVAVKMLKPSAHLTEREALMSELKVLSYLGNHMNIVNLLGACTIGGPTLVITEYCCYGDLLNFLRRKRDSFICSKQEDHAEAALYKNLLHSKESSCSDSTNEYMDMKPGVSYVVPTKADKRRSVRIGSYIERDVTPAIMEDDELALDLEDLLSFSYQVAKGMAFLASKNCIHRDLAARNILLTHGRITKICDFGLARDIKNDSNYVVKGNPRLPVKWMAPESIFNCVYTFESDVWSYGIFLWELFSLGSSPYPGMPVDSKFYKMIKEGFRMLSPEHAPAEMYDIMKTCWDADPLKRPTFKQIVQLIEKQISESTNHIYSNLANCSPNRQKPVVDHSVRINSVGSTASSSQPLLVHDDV
Sequence of NEK4 (P51957 whole entry): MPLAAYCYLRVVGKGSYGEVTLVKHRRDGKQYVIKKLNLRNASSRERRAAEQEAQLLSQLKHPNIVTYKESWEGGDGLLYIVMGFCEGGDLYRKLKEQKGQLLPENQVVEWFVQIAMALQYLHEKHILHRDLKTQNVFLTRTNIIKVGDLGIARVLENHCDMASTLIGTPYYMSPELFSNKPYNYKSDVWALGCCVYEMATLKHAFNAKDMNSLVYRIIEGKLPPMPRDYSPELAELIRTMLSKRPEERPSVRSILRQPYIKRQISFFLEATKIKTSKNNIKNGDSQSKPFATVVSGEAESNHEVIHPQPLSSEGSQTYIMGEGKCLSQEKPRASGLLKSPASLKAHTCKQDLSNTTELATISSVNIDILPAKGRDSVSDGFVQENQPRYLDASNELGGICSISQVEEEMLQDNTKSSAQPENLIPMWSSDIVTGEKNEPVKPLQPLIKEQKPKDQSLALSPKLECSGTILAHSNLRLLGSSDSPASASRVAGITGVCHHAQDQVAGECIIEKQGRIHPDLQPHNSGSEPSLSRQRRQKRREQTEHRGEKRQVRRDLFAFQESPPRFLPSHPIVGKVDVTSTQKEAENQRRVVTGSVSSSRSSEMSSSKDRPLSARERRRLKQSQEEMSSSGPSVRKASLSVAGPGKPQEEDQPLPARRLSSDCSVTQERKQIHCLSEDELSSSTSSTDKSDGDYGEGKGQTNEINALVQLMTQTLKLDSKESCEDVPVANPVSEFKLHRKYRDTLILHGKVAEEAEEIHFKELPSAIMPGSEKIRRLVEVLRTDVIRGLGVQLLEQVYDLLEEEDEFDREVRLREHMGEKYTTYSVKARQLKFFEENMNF
Sequence of AURKB (Q96GD4 whole entry): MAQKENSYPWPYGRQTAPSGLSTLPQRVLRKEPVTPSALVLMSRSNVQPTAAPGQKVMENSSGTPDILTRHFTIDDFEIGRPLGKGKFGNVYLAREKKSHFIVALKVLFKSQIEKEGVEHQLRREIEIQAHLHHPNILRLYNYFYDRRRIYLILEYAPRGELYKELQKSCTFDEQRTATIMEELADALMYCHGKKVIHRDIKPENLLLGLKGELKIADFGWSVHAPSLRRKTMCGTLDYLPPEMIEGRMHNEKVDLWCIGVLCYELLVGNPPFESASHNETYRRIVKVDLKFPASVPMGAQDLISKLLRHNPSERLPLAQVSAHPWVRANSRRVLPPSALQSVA
Sequence of CSNK2A2 (P19784 whole entry): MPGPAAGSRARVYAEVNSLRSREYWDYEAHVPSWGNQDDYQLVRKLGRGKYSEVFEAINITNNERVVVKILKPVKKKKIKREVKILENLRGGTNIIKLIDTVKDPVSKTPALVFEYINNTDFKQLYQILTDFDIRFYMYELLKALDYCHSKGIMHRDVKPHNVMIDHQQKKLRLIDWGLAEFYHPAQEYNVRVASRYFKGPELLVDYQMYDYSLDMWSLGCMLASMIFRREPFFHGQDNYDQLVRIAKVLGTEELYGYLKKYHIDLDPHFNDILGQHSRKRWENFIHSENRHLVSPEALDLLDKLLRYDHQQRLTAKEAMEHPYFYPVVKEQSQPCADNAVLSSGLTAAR

CNc1ncc2cc(-c3ccc(-c4cccc(C)n4)cc3Cl)c(=O)n(C[C@H]3OC[C@H](N)CO3)c2n1 [compound 6, G-5555]
Percent Control [1]: 100%
Percent Control [2]: 100%
Percent Control [3]: 100%
Percent Control [4]: 100%
Percent Control [5]: 1%
Percent Control [6]: 95%
Percent Control [7]: 100%
Percent Control [8]: 100%
Percent Control [9]: 100%
Percent Control [10]: 100%
Percent Control [11]: 100%
Percent Control [12]: 34%
Percent Control [13]: 67%
Percent Control [14]: 100%
Percent Control [15]: 100%
Percent Control [16]: 74%
Percent Control [17]: 29%
Percent Control [18]: 67%
Percent Control [19]: 23%
Percent Control [20]: 81%
Percent Control [21]: 63%
Percent Control [22]: 52%
Percent Control [23]: 2%
Percent Control [24]: 8%
Percent Control [25]: 64%
Percent Control [26]: 100%
Percent Control ([27]; nonphosphorylated): 87%
Percent Control ([27]; phosphorylated): 100%
Percent Control [28]: 85%
Percent Control [29]: 100%
